One assay has as its target T1, human recombinant HDAC1 (Homo sapiens, UniProt Q13547).
T1 construct: purchased Enzo Life Science, Inc. BML-SE456
Kind of assay: HDAC1 enzyme activity inhibition (HDAC Fluorimetric Drug Discovery Kit). The format is biochemical. The following applies: human recombinant HDAC1; IC50 calculated with GraphPad Prism; read-out: HDAC1. The gist of the method:
(§1)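 Each isoform is run in the same format: compound dilutions (5-fold steps), 10 μM substrate, […] enzyme, one hour at 30° C, then 30 minutes with developer before fluorescence readout.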

The target of a further assay is T2, human recombinant HDAC6 (Homo sapiens, UniProt Q9UBN7).
T2 construct: purchased Calbiochem Inc. 382180
T2 sequence (Q9UBN7 1-1215): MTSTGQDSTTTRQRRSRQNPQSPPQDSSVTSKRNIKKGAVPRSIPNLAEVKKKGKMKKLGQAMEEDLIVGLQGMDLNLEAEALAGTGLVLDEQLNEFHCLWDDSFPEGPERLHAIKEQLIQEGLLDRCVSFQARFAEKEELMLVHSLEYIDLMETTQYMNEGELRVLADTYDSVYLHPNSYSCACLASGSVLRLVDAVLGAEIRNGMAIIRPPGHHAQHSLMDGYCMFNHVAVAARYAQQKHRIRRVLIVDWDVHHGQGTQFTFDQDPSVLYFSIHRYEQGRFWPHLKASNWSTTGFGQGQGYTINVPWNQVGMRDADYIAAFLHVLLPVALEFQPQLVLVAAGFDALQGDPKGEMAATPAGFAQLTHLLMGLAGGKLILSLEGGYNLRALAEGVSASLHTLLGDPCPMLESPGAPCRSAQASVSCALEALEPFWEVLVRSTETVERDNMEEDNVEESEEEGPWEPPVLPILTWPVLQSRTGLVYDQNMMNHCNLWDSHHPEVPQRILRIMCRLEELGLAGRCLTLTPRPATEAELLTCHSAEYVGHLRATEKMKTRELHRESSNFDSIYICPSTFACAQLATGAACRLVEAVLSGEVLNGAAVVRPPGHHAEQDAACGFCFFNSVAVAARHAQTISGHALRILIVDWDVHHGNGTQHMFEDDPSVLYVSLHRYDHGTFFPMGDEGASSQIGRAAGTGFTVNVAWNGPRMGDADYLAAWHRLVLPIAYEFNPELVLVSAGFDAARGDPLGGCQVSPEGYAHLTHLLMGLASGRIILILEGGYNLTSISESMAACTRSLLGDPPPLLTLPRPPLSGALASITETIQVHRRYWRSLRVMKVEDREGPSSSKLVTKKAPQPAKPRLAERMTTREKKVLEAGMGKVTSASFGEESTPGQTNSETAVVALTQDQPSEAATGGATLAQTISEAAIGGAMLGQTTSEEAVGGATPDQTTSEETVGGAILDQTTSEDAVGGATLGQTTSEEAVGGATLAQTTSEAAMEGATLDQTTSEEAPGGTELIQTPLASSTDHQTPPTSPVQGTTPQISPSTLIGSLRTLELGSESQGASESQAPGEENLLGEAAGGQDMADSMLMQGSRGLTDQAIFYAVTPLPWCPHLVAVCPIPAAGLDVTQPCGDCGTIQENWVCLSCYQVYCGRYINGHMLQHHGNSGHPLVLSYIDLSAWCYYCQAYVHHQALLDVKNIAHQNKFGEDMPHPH
The assay can be described thus: HDAC6 enzyme activity inhibition (HDAC Fluorimetric Drug Discovery Kit). The following applies: for HDAC6 selectivity (fold): HDAC1 IC50 / HDAC6 IC50; for IC50: human recombinant HDAC6, IC50 calculated with GraphPad Prism. The format is biochemical. The gist of the method: as §1

Assay [1] has as its system hippocampal neurons from a Sprague-Dawley (SD) rat fetus. Kind of assay: Effect of HDAC6-specific inhibitor on axonal transport of mitochondria in amyloid-beta treated neurons. The format is cell-based. To be noted: transport velocity of mitochondria in neuronal axon after normalization; vehicle = 100%, amyloid beta treatment group = 0%; compound treatment for three hours. The method, then:
On the 17th to 18th days (E17-18) of insemination, the hippocampal neurons from a Sprague-Dawley (SD) rat fetus were cultured in a culture container for imaging, which had been coated with extracellular matrix, and were treated with amyloid-beta protein fragments at a concentration of […]. In 24 hours later, the neurons were treated with the compound on the 8th day of in vitro culture. In three hours later, the resulting neurons were treated with MitoTracker Red CMXRos (Life Technologies, NY, USA) for last five minutes to stain mitochondria. An image on the axonal transport of stained neuron mitochondria was taken with a confocal microscope (Leica SP8; Leica microsystems, UK) at an interval of one second for one minute to measure a transport velocity of each mitochondria per second with an IMARIS analysis program (BITPLANE, Zurich, Switzerland).
In result, after setting a section, in which the group treated with amyloid-beta had shown a significant decrease in the transport velocity of mitochondria compared to a vehicle, it was confirmed for 1,3,4-oxadiazole triazol derivative compounds of the present invention, stereoisomers thereof or pharmaceutically acceptable salts thereof that the vehicles is represented as 100%, the amyloid beta treatment group is represented as 0%, a velocity distribution of the compound after normalization is represented as *, 0%˜50%; **, 50%˜100%; ***, >100%.

The structures appear in SMILES notation.

T1 sequence (Q13547 whole entry): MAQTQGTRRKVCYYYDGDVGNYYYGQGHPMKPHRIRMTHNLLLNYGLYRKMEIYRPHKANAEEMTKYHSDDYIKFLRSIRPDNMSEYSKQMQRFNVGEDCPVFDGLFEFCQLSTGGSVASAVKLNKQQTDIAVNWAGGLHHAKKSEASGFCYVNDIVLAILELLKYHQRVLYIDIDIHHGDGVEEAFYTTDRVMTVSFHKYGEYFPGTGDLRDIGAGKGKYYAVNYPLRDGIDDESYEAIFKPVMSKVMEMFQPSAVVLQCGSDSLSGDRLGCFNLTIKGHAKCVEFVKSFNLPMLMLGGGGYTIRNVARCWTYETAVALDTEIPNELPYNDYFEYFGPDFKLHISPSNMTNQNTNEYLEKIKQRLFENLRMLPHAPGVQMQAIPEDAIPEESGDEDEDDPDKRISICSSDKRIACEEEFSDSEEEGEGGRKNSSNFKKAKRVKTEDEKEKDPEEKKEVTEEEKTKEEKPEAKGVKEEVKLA

As for `FC(F)c1nnc(-c2ccc(Cn3cc(-c4ccccn4)nn3)nc2)o1` [Compound 3881, 2-(difluoromethyl)-5-(6-((4-(pyridin-2-yl)-1H-1,2,3-triazol-1-yl)methyl)pyridin-3-yl)-1,3,4-oxadiazole], the results for the IC50 on human recombinant HDAC1 and at human recombinant HDAC6 were greater than 50 µM and 0.034 µM, respectively. Besides, the “HDAC6 selectivity (fold)” value at human recombinant HDAC6 was found to be 1470 fold. In addition, the “Velocity distribution (%)” value in assay [1] is listed as “*** (***, >100%)”.
For the compound `FC(F)c1nnc(-c2ccc(Cn3cc(-c4cncc(Cl)c4)nn3)nc2)o1` [Compound 3883, 2-(6-((4-(5-chloropyridin-3-yl)-1H-1,2,3-triazol-1-yl)methyl)pyridin-3-yl)-5-(difluoromethyl)-1,3,4-oxadiazole], at human recombinant HDAC1, the IC50 was greater than 50 µM. At human recombinant HDAC6, the “HDAC6 selectivity (fold)” value was determined as 1474 fold and the IC50 is 0.0339 µM. Moreover, the “Velocity distribution (%)” value in assay [1] is reported as “* (*, 0%˜50%)”.
Turning to `O=C(c1cccc(-c2cn(Cc3ccc(-c4nnc(C(F)F)o4)cn3)nn2)c1)N1CCC1` [Compound 3886, Azetidin-1-yl(3-(1-((5-(5-(difluoromethyl)-1,3,4-oxadiazol-2-yl)pyridin-2-yl)methyl)-1H-1,2,3-triazol-4-yl)phenyl)methanone], the IC50 on human recombinant HDAC1 was greater than 50 µM. At human recombinant HDAC6, the “HDAC6 selectivity (fold)” value was found to be 1118 fold and the IC50 was 0.0447 µM. The “Velocity distribution (%)” value in assay [1] is reported as “* (*, 0%˜50%)”.
Consider `FC(F)c1nnc(-c2ccc(Cn3cc(-c4cccs4)nn3)nc2)o1` [Compound 3902, 2-(difluoromethyl)-5-(6-((4-(thiophen-2-yl)-1H-1,2,3-triazol-1-yl)methyl)pyridin-3-yl)-1,3,4-oxadiazole], for which, on human recombinant HDAC1, the IC50 was greater than 50 µM. Also, at human recombinant HDAC6, the “HDAC6 selectivity (fold)” value was 2415 fold and the IC50 was 0.0207 µM. Also, in assay [1], the “Velocity distribution (%)” value is “*** (***, >100%)”.
For `Cn1ccc2ccc(-c3cn(Cc4ccc(-c5nnc(C(F)F)o5)cn4)nn3)cc21` [Compound 3914, 2-(difluoromethyl)-5-(6-((4-(1-methyl-1H-indol-6-yl)-1H-1,2,3-triazol-1-yl)methyl)pyridin-3-yl)-1,3,4-oxadiazole], the IC50 at human recombinant HDAC1 was greater than 50 µM; at human recombinant HDAC6 it was 0.0432 µM. In addition, at human recombinant HDAC6, the “HDAC6 selectivity (fold)” value was determined as 1190 fold. Further, the “Velocity distribution (%)” value in assay [1] was “* (*, 0%˜50%)”.
As to `FC(F)c1nnc(-c2ccc(Cn3cc(-c4cccc(CN5CCOCC5)c4)nn3)nc2)o1` [Compound 3916, 4-(3-(1-((5-(5-(difluoromethyl)-1,3,4-oxadiazol-2-yl)pyridin-2-yl)methyl)-1H-1,2,3-triazol-4-yl)benzyl)morpholine], on human recombinant HDAC1, the IC50 is greater than 50 µM. In addition, at human recombinant HDAC6, the “HDAC6 selectivity (fold)” value stood at 1754 fold and the IC50 is 0.0285 µM. Further, the “Velocity distribution (%)” value in assay [1] is “*** (***, >100%)”.
As for `Cc1ccc(-c2cn(Cc3ccc(-c4nnc(C(F)F)o4)cn3)nn2)cn1` [Compound 3925, 2-(difluoromethyl)-5-(6-((4-(6-methylpyridin-3-yl)-1H-1,2,3-triazol-1-yl)methyl)pyridin-3-yl)-1,3,4-oxadiazole], the IC50 on human recombinant HDAC1 is greater than 50 µM. In addition, on human recombinant HDAC6, the “HDAC6 selectivity (fold)” value was determined as 1424 fold and the IC50 is 0.0351 µM. The “Velocity distribution (%)” value in assay [1] is “*** (***, >100%)”.
As for `FC(F)c1nnc(-c2ccc(Cn3cc(-c4ccc5c(CN6CCOCC6)c[nH]c5c4)nn3)nc2)o1` [Compound 3944, 4-((6-(1-((5-(5-(difluoromethyl)-1,3,4-oxadiazol-2-yl)pyridin-2-yl)methyl)-1H-1,2,3-triazol-4-yl)-1H-indol-3-yl)methyl)morpholine], the IC50 on human recombinant HDAC1 was greater than 50 µM. For the same compound, on human recombinant HDAC6, the “HDAC6 selectivity (fold)” value was 7462 fold and the IC50 is 0.0067 µM. In addition, in assay [1], the “Velocity distribution (%)” value was “* (*, 0%˜50%)”.
